Laboratory results as given in patent US11154544B2, “Amide derivatives as Nav1.7 and Nav1.8 blockers” (RaQualia Pharma Inc., priority 2017, dated 2021).

These molecules were tested against Nav1.7 (Homo sapiens (Human), UniProt Q15858) (assay: EFS-FRET assay). Conditions: EFS-FRET, CHO cells expressing human Nav1.7; read-out: IC50 against Nav1.7.
Format: cell-based
Procedure: This screen is used to determine the effects of compounds on human Nav1.7 channels, utilizing electrical field stimulation (EFS) system in 96-well plate format on FDSS (Hamamatsu Photonics) platform. The change of membrane potential is monitored with FRET dye pair, DiSBAC2(3) and PTS 18.
CHO (Chinese hamster ovary) cells expressing human Nav1.7 channels are grown in T225 flasks, in a 5% CO2 humidified incubator to about 80% confluence. Media composition consists of HAM/F^.12 with Glutamax I, 10% FCS, 100 units/mL penicillin and 100 microgram/mL hygromycin.
Seed each cell lines (1×10^5 cells/well) into 96-well plates prior to experimentation.
Incubate at 37° C. in 5% CO2, for 24 hours.
Wash each well with assay buffer (140 mM NaCl, […], 10 mM D-Glucose, 2 mM CaCl2, 1 mM MgCl2, 10 mM HEPES, pH 7.4 adjusted with NaOH) twice.
Add 1st loading solution containing 10 microM PTS18 and 0.06% Pluronic F-127 in assay buffer.
Incubate the plate at rt in dark for 1 hour. • Remove 1st loading solution and add 2nd loading solution containing 12.5 microM DiSBAC2(3), 1.25 mM Xylene Fast Yellow and 0.0075% Pluronic F-127 in assay buffer. • Place the plate under the dark at rt for 25 minutes. • Add compound solutions into the assay plate. • Set the assay plate in FDSS and place an EFS device on the plate. • Measure EFS-induced fluorescent response by FDSS.
The data are analyzed and reported as normalized ratios of intensities measured at […]. The process of calculating these ratios is performed as follows:
This analysis is performed using a computerized specific program designed for
FDSS generated data. Fluorescence ratio values are plotted using XLfit to determine an IC50 value for each, compound.

Chain of Nav1.7 (Q15858 whole entry): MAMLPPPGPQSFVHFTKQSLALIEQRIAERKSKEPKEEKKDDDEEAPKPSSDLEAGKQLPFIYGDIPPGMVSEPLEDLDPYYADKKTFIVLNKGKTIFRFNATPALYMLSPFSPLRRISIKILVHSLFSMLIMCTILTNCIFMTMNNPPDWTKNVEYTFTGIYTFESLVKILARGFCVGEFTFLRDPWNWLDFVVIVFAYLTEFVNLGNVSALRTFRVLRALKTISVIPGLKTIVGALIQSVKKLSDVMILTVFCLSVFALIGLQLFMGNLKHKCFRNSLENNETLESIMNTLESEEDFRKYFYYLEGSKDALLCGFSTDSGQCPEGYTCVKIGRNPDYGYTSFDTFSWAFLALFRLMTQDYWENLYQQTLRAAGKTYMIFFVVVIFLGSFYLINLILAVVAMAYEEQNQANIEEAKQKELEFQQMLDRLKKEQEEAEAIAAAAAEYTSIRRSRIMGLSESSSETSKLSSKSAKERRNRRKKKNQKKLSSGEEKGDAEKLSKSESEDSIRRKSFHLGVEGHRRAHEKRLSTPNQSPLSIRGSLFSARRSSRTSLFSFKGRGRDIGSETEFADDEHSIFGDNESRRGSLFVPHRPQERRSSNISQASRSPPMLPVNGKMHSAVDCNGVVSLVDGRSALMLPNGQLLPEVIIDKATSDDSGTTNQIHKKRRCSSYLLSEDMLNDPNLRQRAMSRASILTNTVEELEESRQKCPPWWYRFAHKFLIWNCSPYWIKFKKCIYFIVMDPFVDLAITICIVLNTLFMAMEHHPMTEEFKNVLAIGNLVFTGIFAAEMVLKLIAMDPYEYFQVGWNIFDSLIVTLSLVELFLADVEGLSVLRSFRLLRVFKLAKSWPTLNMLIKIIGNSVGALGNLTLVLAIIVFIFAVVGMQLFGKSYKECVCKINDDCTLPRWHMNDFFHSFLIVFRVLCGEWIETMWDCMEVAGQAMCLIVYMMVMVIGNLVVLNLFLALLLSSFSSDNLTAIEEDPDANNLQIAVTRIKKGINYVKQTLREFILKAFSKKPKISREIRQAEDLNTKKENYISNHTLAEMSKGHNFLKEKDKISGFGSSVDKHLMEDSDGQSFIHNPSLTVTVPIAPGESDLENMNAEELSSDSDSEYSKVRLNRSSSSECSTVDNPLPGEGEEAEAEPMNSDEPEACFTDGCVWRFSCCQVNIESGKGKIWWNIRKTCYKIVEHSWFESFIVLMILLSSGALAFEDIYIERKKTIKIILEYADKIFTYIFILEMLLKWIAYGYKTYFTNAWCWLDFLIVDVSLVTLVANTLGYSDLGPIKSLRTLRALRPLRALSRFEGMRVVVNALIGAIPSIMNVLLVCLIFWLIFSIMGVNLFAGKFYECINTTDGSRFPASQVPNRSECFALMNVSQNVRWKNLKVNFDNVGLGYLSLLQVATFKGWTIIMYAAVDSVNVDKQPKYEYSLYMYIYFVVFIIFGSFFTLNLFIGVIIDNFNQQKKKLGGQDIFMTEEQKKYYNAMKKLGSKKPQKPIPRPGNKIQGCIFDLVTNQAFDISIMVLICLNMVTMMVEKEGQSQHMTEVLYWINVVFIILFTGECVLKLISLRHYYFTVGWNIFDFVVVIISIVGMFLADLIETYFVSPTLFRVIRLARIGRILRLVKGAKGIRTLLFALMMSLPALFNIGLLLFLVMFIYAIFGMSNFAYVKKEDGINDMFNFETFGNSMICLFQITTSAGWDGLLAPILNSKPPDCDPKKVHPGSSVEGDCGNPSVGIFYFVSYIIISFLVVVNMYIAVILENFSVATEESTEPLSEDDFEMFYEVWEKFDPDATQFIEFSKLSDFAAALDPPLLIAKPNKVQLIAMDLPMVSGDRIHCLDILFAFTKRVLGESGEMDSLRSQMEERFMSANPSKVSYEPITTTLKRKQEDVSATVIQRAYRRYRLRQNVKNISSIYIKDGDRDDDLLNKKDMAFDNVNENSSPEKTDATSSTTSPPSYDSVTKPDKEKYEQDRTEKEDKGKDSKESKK

| Structure (SMILES) | IC50 [nM] |
| --- | --- |
| CCC(=O)Nc1cc(C(=O)N[C@H](C)COc2ncc(C(F)(F)F)cc2Cl)ccn1 [Example 64] | < 500 |
| CCC(=O)Nc1cc(C(=O)NCCOc2ccc(C(F)(F)F)cc2C)cc(C)n1 [Example 141] | < 500 |
| CC(C)C(=O)Nc1cc(C(=O)NCCOc2ccc3cc(C(F)(F)F)ccc3n2)ccn1 [Example 46] | < 500 |
| Cc1cc(C(=O)NCCOc2ccc(C(F)(F)F)cc2Cl)cc(NC(=O)C2CC2)n1 [Example 41] | < 500 |
| O=C(NCCOc1ccc(C(F)(F)F)cc1Cl)c1ccnc(NC(=O)C2CC2)c1 [Example 40] | < 500 |
| CC(=O)Nc1cc(C(=O)NCCOc2ccc(OC(F)(F)F)cc2Cl)cc(C)n1 [Example 116] | < 500 |
| CC(=O)Nc1cc(C(=O)N[C@H](C)COc2ncc(C(F)(F)F)cc2Cl)cc(C)n1 [Example 65] | < 500 |
| C[C@H](COc1ncc(C(F)(F)F)cc1Cl)NC(=O)c1ccnc(NC(=O)C2CC2)n1 [Example 71] | < 500 |
| Cc1cc(C(=O)NCCNc2ncc(C(F)(F)F)cc2Cl)cc(NC(=O)C(C)C)n1 [Example 37] | < 500 |
| Cc1cc(C(=O)NCCOc2ccc(C(F)(F)F)cc2F)cc(NC(=O)C(C)C)n1 [Example 98] | < 500 |
| O=C(NCCOc1ccc2cc(C(F)(F)F)ccc2n1)c1ccnc(NC(=O)C2CC2)c1 [Example 45] | < 500 |
| COc1cc(C(F)(F)F)ccc1OCCNC(=O)c1ccnc(NC(C)=O)c1 [Example 126] | < 500 |
| Cc1cc(C(F)(F)F)ccc1OCCNC(=O)c1ccnc(NC(=O)C2CC2)c1 [Example 142] | < 500 |
| CC(C)C(=O)Nc1cc(C(=O)NCCOc2ccc(S(F)(F)(F)(F)F)cc2)ccn1 [Example 34] | < 500 |
| CC(=O)Nc1cc(C(=O)NCCNc2ncc(C(F)(F)F)cc2Cl)ccn1 [Example 2] | < 500 |
| CCC(=O)Nc1cc(C(=O)N[C@H](C)COc2ncc(C(F)(F)F)cc2Cl)cc(C)n1 [Example 66] | < 500 |
| COc1cc(C(F)(F)F)ccc1OCCNC(=O)c1cc(C)nc(NC(=O)C2CC2)c1 [Example 132] | < 500 |
| Cc1cc(C(=O)NCCOc2ccc(C(F)(F)F)cc2F)cc(NC(=O)C2CC2)n1 [Example 97] | < 500 |
| CCC(=O)Nc1cc(C(=O)NCCOc2ccc3cc(C(F)(F)F)ccc3n2)cc(C)n1 [Example 44] | < 500 |
| C[C@H](COc1ncc(C(F)(F)F)cc1Cl)NC(=O)c1ccnc(NC(=O)C2CC2)c1 [Example 67] | < 500 |
| CCC(=O)Nc1cc(C(=O)NCCOc2ccc(S(F)(F)(F)(F)F)cc2)ccn1 [Example 32] | < 500 |
| O=C(NCCOc1ccc(OC(F)(F)F)cc1Cl)C1C=C(NC(=O)C2CC2)N=CC1 (stereo not drawn) [Example 106] | < 500 |
| CC(=O)Nc1cc(C(=O)NCCCc2ncc(C(F)(F)F)cc2Cl)cc(C)n1 [Example 28] | < 500 |
| CCC(=O)Nc1cc(C(=O)NCCOc2ccc(OC(F)(F)F)c(F)c2)ccn1 [Example 148] | < 500 |
